Entries after “also recorded” stand apart in the source; their conditions may differ.

The subject of data set [1] is Normal, Snord116m+/p− (PWS model) and PWS KO mice. Briefly: Body weight, body fat and lean mass, 12-week feeding study, Example 2. Format: in vivo, mouse. The settings on record: 12 weeks, CLA 0.5% per gram food. From the text:
Normal an d Snord116^m+/p− mice (PWS model), as well as mice with a complete deletion of Snord116 (PWS KO) were randomly divided into control or CLA-treatment groups. the diets (from Envigo/Harland-Teklad) were composed of 20% fat, and matched in all other components. Conjugated linoleic acid (Tonalin™, composed of 60%-90% of the cis-9, trans-11 and trans-10, cis-12 CLA isomers in a 50/50 ratio) was provided to the CLA-treatment groups to equal 0.5% per gram food intake.
Adult mice (aged 8-10 weeks) were housed individually, and given ad libitum access to either control or CLA food for 12 weeks. They were weighed weekly, and food intake, body fat, body lean mass, and rectal temperature were measured weekly.

For data set [2], the system named is cecal bacterial communities. The data set can be described thus: Cecum microbiome analysis (16S rRNA sequencing). The data set is classed as in vivo, mouse. How it is done: Cecal samples were flash-frozen in liquid nitrogen and stored at −80° C. DNA was isolated from cecal content using a DNeasy PowerSoil Pro Kit (Qiagen #47014) and the TissueLyser II (Qiagen #85300). Fifty nanograms of genomic DNA was utilized for amplifi-cation of the V4 variable region of the 16S rRNA gene using 515F/806R primers. Forward and reverse primers were barcoded to accommodate multiplexing up to 384 samples per run as described by Kozich and colleagues. Paired-end sequencing (2×250 bp) of pooled amplicons was carried out using an Illumina Miseq platform with ˜30% PhiX DNA.
Demultiplexing, adapter trimming, and generating the fastq files were performed au-tomatically using the Miseq Reporter on the instrument computer. Bioinformatics analysis was then conducted using the QIIME 2 platform. Denoising was performed with an initial quality filtering followed by the Deblur algorithm. Representative amplicon sequence variants (ASVs) were used to generate a phylogenetic tree with FastTree, and taxonomy was assigned using a Naive Bayes classifier trained on the Greengenes 13_8 reference. To evaluate diversity metrics, samples were rarefied to an even depth of 4397 quality-filtered reads. Beta diversity was assessed using the weighted Unifrac distances and visualized using the principal coordinate analysis (PCoA) plot.
Statistical analyses for microbiome data were performed in R v4.0.5. Differences in beta diversity were evaluated using permutational multivariate analysis of variance (PERMANOVA) with 999 permutations and including the weighted Unifrac distance matrix. The Kruskal-Wallis test was used to evaluate alpha metrics and taxonomic differences and the Dunn's test was used to evaluate pairwise multiple comparisons, with p-values corrected for multiple testing using the false discovery rate (FDR) approach.

For data set [3], the system named is WT, PWS (Snord116m+/p−) and PWS-KO (Snord116m−/p−) mice. Briefly: In vivo plantarflexor torque-frequency and fatigue assays. Further details: species or system mouse. On the procedure:
The procedures for in vivo muscle testing were recently published. Briefly, at the end of the study, following both running wheel and metabolism measurements, body weight was determined, and mice were anesthetized with isoflurane (VetOne Fluriso, Boise, ID, USA) and placed on the temperature-controlled platform (40° C.) of the contractile apparatus (ASI), as described. The right hindlimb was shaved, hair remover applied (Nair Hair Remover Lotion, Ewing, NJ, USA) for 30 s, cleaned with 2-inch×2-inch gauze and tap water, and swabbed with povidone-iodine (Betadine Solution Swabsticks, Stamford, CT, USA). The knee was clamped so the tibia was 90° to the femur. The foot at 90° to the tibia was secured with clear Transpore surgical tape ([…], St. Paul, MN, USA) to the foot pedal of the Aurora Scientific (ASI: Aurora, ON, Canada) dual-mode servomotor. The mouse tail was taped (M3, St. Paul, MN, USA) loosely to the platform to keep it clear of the foot pedal. In vivo plantarflexor torque-frequency and fatigue assays were determined as described in Hamm et al.. Dynamic Muscle Control (DMC) software controlled the timing and frequency of the stimulations and collection of torque. Peak torque for each muscle contraction was determined using ASI Dynamic Muscle Analysis (DMA) software. Due to the body mass and fat mass reduction of the CLA groups in this study, torque was normalized separately by body mass (g) and the final measure of lean body mass (g).
In vivo plantar-flexor torque-frequency and fatigue curves were analyzed using Graph-Pad Prism 9.2.0. A two-way ANOVA was performed with multiple comparisons across groups. For torque-frequency figures, a nonlinear model was fit using the sigmoidal curve with variable slope.

The test system is the same in data set [4]. The data set can be described thus: Fasting glucose and glucose tolerance test. The data set is classed as in vivo, mouse. The settings on record: all genotypes, after 12 weeks diet, vs control diet. On the procedure:
Mice were food-deprived for 12-15 h during the dark cycle in a cage devoid of bedding material. For the fasting measurement, the tail was snipped (1-2 mm), and blood was collected directly on Care Touch glucose test strips and directly measured using a Care Touch blood glucose monitor (Future Diagnostics USA, Brooklyn, NY, USA). Glucose (pharmaceutical grade dextrose, 2 g/kg in PBS, sterile) was injected intraperitoneally (IP) and tail blood samples were obtained at 15, 30, 60, 90, and 120 min following the injection. Area under the curve was calculated using the formula (((([fasting glucose×7.5]+[15 min glucose×15)+[30 min glucose×22.5])+[60 min glucose×30])+[90 min glucose×30])+[120 min glucose×15]).

The next data set deals with N2KO mice. The settings on record: 20% fat diet, refs [13-16]; cited from earlier work.
For data set [5], the system named is testes of N2KO and WT mice. Briefly: Testicular histology (H&E), Example 3. The data set is classed as in vivo, mouse. From the text: At the end of the study, numerous body tissues were taken during necropsy, including testes. […] There appeared to be no effect in WT mice.
At the end of the 12-week feeding study with supplemental CLA, mice were euthanized and necropsied. Testicular tissue was removed from the abdominal cavity and placed in 4% paraformaldehyde overnight. The next day, tissue was dehydrated in 70% ethanol and stored at 4 degrees C. until further processing, which included embedding, sectioning and H&E staining.

For the substance conjugated linoleic acid [CLA], the “Lean (muscle) mass” value in data set [1] is on record as “no changed; also recorded: did not change”. In data set [1] (vs control diet), the Body fat entry is on record as “significant reduction” and the Body weight result was “significant reduction”. The “Relative abundance of Cyanobacteria” value in data set [2] (CLA vs control diet, p=0.04) was “lower”. For the same substance, the Firmicutes phylum overall entry in data set [2] (H=3.74, p=0.59) is “not significantly affected”. The Sutterella sp. entry in data set [2] (H=13.8, p=0.02) was “significantly increased”. Besides, the Ruminococcus sp. entry in data set [2] (all genotypes) is recorded as “reduced”. Further, in data set [2] (all genotypes, H=15.7, p=0.008), the Turicibacter sp. result is given as “significantly reduced”. Also, the “Relative abundance of the other phyla” value in data set [2] (between diets, p>0.09) is “similar”. The α-diversity metrics entry in data set [2] (control vs CLA, p≤0.02) is given as “differed”. Further, the β-diversity measures entry in data set [2] (weighted Unifrac) is recorded as “significantly impacted”. For the same substance, the Resistance to fatigue result in data set [3] (PWS CLA and PWS-KO CLA vs control diet counterparts) was “lowered”. Besides, the “Plantarflexor torque output, PWS group” value in data set [3] (PWS, normalized to lean body mass) is “lowered torque output”. Also, in data set [3] (WT and PWS mice on CLA diet vs most other genotypes and treatments), the Fatigue result was “greater fatigue”. Besides, in data set [3] (WT, regardless of normalization method), the “Plantarflexor torque output, WT mice” value is “increased torque output”. The “Muscle function, overall” value in data set [3] (any group, vs WT baseline) is listed as “not detrimental to muscle function”. Also, the Fasting glucose result in data set [4] is on record as “significantly higher; also recorded: significantly increased fasting glucose”. In addition, the “Outcomes of CLA treatment of N2KO mice” value with N2KO mice is “weight loss, decreased body fat, increased metabolism, muscle mitochondrial biogenesis, and increased exercise performance”. The “Testicular morphology, WT mice” value in data set [5] (12 weeks CLA diet) is “no effect; also recorded: normal testicular morphology”. Also, the “Testicular morphology, N2KO mice” value in data set [5] (12 weeks CLA diet vs control diet) is listed as “improved testicular morphology”. Further, in data set [5] (N2KO, histology), the “Sperm in N2KO mice fed the CLA diet” value was “apparent presence of sperm in the epididymis”. Also, the Testis size entry in data set [5] (effect of diet) is on record as “not influenced”.

These data come from patent publication US20240238237A1, “CONJUGATED LINOLEIC ACID SUPPLEMENTATION FOR DISEASE TREATMENT” (VIRGINIA TECH INTELLECTUAL PROPERTIES, INC., priority 2021, published 2024).
